# Tested on: malignant primary or metastatic tumors involving the CNS
# Experiment: Clinical and radiological tumor response (Macdonald criteria), immune modulating regimen in addition to standard chemoradiotherapy
# Assay type: in vivo, human
# Settings: CNS melanoma subject, ipilimumab with radiotherapy, before the regimen
# Procedure: Subjects used in the larger study were diagnosed with different primary or metastatic tumors involving the central nervous system: glioblastoma, carcinoma, or lymphoma. The oral immunomodulation regimen was offered to subjects in addition to standard therapy.
# Samples were collected at scheduled clinic visits. […] Radiology studies were performed as part of standard evaluation.
substance,measurement,value
ipilimumab,Disease course on prior therapy,progressed

# Reference: patent US11559500B2, “Compositions and formulations for treatment of malignancies” (Neugate Pharma, LLC, priority 2017, dated 2023)
